No end group written: not given here.
How the values were obtained:
[1] = test system: Pseudomonas aeruginosa; assay: Minimal inhibitory concentration in trypticase soy broth versus Pseudomonas aeruginosa; format: cell-based
Protocol: (§1) Approximately 1,000 bacteria were seeded into about 200 ul of trypticase soy broth. Either magainin 2 carboxy terminal amide, PGLa, or ALSKALSK ALSKALSKALSKALSK (Z-44) were added in increasing concentrations in the absence (Panel A) or presence (Panel B) of 50 mM NaF.

[2] = test system: E. cloacae; assay: Killing of E. cloacae: viable organisms on plating after incubation in TSB; format: cell-based, Enterobacter cloacae; settings: for CFU / EOP (% viable): 15 min at 37° C.
Protocol: LEGEND: Organisms were incubated in a volume of 1 ml in either trypticase soy broth alone or containing substances noted for 15 min at 37° C. An aliquot was then diluted and plated to determine number of viable organisms.

[3] = test system: Enterobacter cloacae; format: cell-based
Protocol: as §1

In the case of GIGKFLHSAKKFGKAFVGEIMNS-NH2 [MGN2], the “MINIMAL INHIBITORY CONCENTRATION” value ([1]; Panel A: absence of NaF) is reported as 250 to 500 µg/mL, the “MINIMAL INHIBITORY CONCENTRATION” value ([1]; Panel B: +50 mM NaF) is reported as 60 to 125 µg/mL and the bacterial killing ([2]; 60 ug/ml MGN2 + 50 mM NaF, 10^7 E. cloacae in 1 ml TSB) is reported as “all bacteria are killed”. The “potentiation of effective killing power by addition of fluoride” value ([2]; 60 ug/ml MGN2 with versus without NaF) was “over 1 million”, the CFU ([2]; peptide 60 ug/ml + NaF 25 mM) was 0 and the “EOP (% viable)” value ([2]; peptide 60 ug/ml + NaF 25 mM) was 0%. The CFU ([2]; peptide 60 ug/ml, no NaF, 10^7 organisms in 1 ml TSB) was “about 10^6”, the CFU ([2]; peptide 60 ug/ml, no NaF, 10^7 organisms in 1 ml TSB, listed as MGN2 (NH2)) was 10^6 and the “EOP (% viable)” value ([2]; peptide 60 ug/ml, no NaF) was 90%.
With [F-].[Na+] [NaF, sodium fluoride] the CFU ([2]; NaF 25 mM alone) was 10^7 and the “EOP (% viable)” value ([2]; NaF 25 mM alone) was 100%.
With GMASKAGAIAGKIAKVALKAL-NH2 [PGLa] the “MINIMAL INHIBITORY CONCENTRATION” value [3] was over 250 µg/mL.
